This note sets out measurements from US20140073651A1, “BENZAMIDE DERIVATIVES AS P2X7 RECEPTOR ANTAGONISTS” (Actelion Pharmaceuticals Ltd., priority 2011, published 2014).

The target in this experiment is T1, human recombinant P2X7 receptor (Homo sapiens, UniProt Q99572).
T1 construct: expressed in transfected cells
T1 sequence (Q99572 1-595): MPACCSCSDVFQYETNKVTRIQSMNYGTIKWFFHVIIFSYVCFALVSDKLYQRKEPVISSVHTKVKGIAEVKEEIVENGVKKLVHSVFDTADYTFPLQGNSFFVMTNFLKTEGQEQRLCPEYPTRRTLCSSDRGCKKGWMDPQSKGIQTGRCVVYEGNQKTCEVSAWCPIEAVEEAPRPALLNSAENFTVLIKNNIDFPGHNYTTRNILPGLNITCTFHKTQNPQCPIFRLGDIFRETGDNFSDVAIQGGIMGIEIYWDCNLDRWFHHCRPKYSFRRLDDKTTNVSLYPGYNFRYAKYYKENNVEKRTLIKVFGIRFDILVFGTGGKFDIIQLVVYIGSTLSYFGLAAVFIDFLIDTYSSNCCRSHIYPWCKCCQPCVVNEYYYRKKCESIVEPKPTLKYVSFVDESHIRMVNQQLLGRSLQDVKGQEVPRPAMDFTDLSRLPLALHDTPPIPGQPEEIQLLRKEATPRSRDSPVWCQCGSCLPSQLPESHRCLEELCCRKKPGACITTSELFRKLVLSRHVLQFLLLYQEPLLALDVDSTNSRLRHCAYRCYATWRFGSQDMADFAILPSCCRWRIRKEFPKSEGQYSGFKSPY
The experiment can be described thus: YO-PRO assay (YO-PRO-1 uptake) in HEK cells stably expressing P2X7. Type of experiment: cell-based. As to conditions: HEK-293 cells expressing human recombinant P2X7 receptor; ATP 250 μM, 90 minutes; YO-PRO-1 fluorescence (FLIPR tetra); read-out: IC50 (antagonistic activity with respect to the P2X7 receptor). The procedure: Cell line generation was performed in general according to established molecular cloning protocols. Specifically, RNA was extracted from human whole blood using the Qiagen RNeasy kit (Qiagen, CH) according to the manufacturer's instructions. Subsequently cDNA was made (Superscript II, Invitrogen AG, CH) and the human P2X7 gene (genbank ref. BC011913) was amplified with the following primers: [NT] and [NT] The amplified sequence was subsequently ligated into a pcDNA3.1 (+) NotI, NheI digested plasmid. […] Following a 24 h exposure to DNA, cells were trypsinized and re-seeded at low density in the presence of 250 μg Geneticin. Geneticin resistant cells were then selected during two consecutive rounds of cloning by serial limiting dilution with visual inspection. Individual clones were screened for P2X7 expression by applying ATP and recording the resultant uptake of YO-[…]. Specific cell clones were chosen based on RNA and protein expression. HEK cells stably expressing P2X7 were used to screen drugs using the YO-[…] assay. Cells were grown to confluency in adherent culture at 37° C. in a humidified 5% CO2 incubator (split 1/5 every 3-4 days with DMEM, 10% FCS, 1% Penicillin/Streptomycin, 250 μg/ml Geneticin). Adherent cells were detached by incubation with Trypsine (1 ml per 165 cm^2 dish) for 2 minutes, then washed off with 10 ml PBS (without Mg^2+ and Ca^2+), and resuspended in DMEM, 10% FCS, 1% Penicillin/Streptomycin, no Geneticin. 10'000 cells per well (48 hours before the assay) or 25'000 cells per well (Vi-cell XR (Beckman Coulter) (24 hours before the assay) in 50 μl full medium were seeded on 384-well black-wall, clear bottom plates, that were coated before with 10 μl per well Poly-L-Lysine, incubated for 30-60 minutes at 37° C. and washed once with PBS. Medium was removed from cells and 50 μl of assay buffer containing 0.5 μM YO-[…] was added into the wells. Solutions of antagonist compounds were prepared by serial dilutions of a 10 mM DMSO solution of the antagonist into PBS using a BioMek (Beckman Coulter). Each concentration was performed in duplicate. […] During this time period, four time points were taken. Each time point comprised the average of several measurements made within a few seconds. […] The FLIPR tetra was equipped with Molecular Devices Screen Works system control software to define and run experimental protocols. […] For IC50 measurements the maximum intensity is plotted against the concentration of compound to determine IC50 values.

Consider `O=C(NCC1(O)CCCCC1)c1cc(Cn2ccccc2=O)ccc1Cl` [Example 142, 2-Chloro-N-(1-hydroxy-cyclohexylmethyl)-5-(2-oxo-2H-pyridin-1-ylmethyl)-benzamide], for which the IC50 came out at 80 nM. The value for `CN(c1ccc(Cl)c(C(=O)NCC2(O)CCC(F)(F)CC2)c1)c1ccnc(=O)[nH]1` [Example 58, 2-Chloro-N-(4,4-difluoro-1-hydroxy-cyclohexylmethyl)-5-[methyl-(2-oxo-2,3-dihydro-pyrimidin-4-yl)-amino]-benzamide] was 51 nM. For `CN(c1ccc(Cl)c(C(=O)NCC2(O)CCCCC2)c1)c1ccnn1C` [Example 101, 2-Chloro-N-(1-hydroxy-cyclohexylmethyl)-5-[methyl-(2-methyl-2H-pyrazol-3-yl)-amino]-benzamide] the value was 319 nM; for `O=C(NCC1(O)CCCCC1)c1cc(N(CC2CCCC2)c2ccnc(Cl)n2)ccc1Cl` [Example 35, 2-Chloro-5-[(2-chloro-pyrimidin-4-yl)-cyclopentylmethyl-amino]-N-(1-hydroxy-cyclohexylmethyl)-benzamide], 367 nM; for `CN(c1ccc(Cl)c(C(=O)NCC2(O)CCCCC2)c1)c1cnccn1` [Example 79, 2-Chloro-N-(1-hydroxy-cyclohexylmethyl)-5-(methyl-pyrazin-2-yl-amino)-benzamide], 352 nM. On to `COCCN(c1ccc(Cl)c(C(=O)NCC2(O)CCCCC2)c1)c1ccnc(OC)n1` [Example 34, 2-Chloro-N-(1-hydroxy-cyclohexylmethyl)-5-[(2-methoxy-ethyl)-(2-methoxy-pyrimidin-4-yl)-amino]-benzamide], for which the IC50 was 860 nM. For the molecule `COCCN(c1ccc(Cl)c(C(=O)NCC2(O)CCCCC2)c1)c1ncccn1` [Example 71, 2-Chloro-N-(1-hydroxy-cyclohexylmethyl)-5-[(2-methoxy-ethyl)-pyrimidin-2-yl-amino]-benzamide], the 50% inhibitory concentration (IC50) was 2000 nM. For `CCCN(c1ccc(Cl)c(C(=O)NCC2(O)CCCCC2)c1)c1ccnc(Cl)n1` [Example 22, 2-Chloro-5-[(2-chloro-pyrimidin-4-yl)-propyl-amino]-N-(1-hydroxy-cyclohexylmethyl)-benzamide] the value was 267 nM. For `O=C(NCC1(O)CCCCC1)c1cc(Oc2ccncc2)ccc1Cl` [Example 106, 2-Chloro-N-(1-hydroxy-cyclohexylmethyl)-5-(pyridin-4-yloxy)-benzamide] the value was 1720 nM. Take `CN(c1ccc(Cl)c(C(=O)NCC2(O)CCCCC2)c1)c1ccnc(=O)n1C` [Example 18, 2-Chloro-N-(1-hydroxy-cyclohexylmethyl)-5-[methyl-(3-methyl-2-oxo-2,3-dihydro-pyrimidin-4-yl)-amino]-benzamide]: the IC50 was determined as 106 nM. For `CN(c1ccc(Cl)c(C(=O)NCC2(O)CCCCC2)c1)c1ccncn1` [Example 9, 2-Chloro-N-(1-hydroxy-cyclohexylmethyl)-5-(methyl-pyrimidin-4-yl-amino)-benzamide] the value was 481 nM; for `O=C(NCC1(O)CCCCC1)c1cc(S(=O)(=O)c2ccccn2)ccc1Cl` [Example 134, 2-Chloro-N-(1-hydroxy-cyclohexylmethyl)-5-(pyridine-2-sulfonyl)-benzamide], 105 nM; for `O=C(NCC1(O)CCC(F)(F)CC1)c1cc(Sc2cc[nH]c(=O)n2)ccc1Cl` [Example 138, 2-Chloro-N-(4,4-difluoro-1-hydroxy-cyclohexylmethyl)-5-(2-oxo-1,2-dihydro-pyrimidin-4-ylsulfanyl)-benzamide], 10 nM.

In the case of `CN(C)c1cncc(N(C)c2ccc(Cl)c(C(=O)NCC3(O)CCCCC3)c2)n1` [Example 84, 2-Chloro-5-[(6-dimethylamino-pyrazin-2-yl)-methyl-amino]-N-(1-hydroxy-cyclohexylmethyl)-benzamide], the IC50 was 65 nM.

With `CN(c1ccc(Cl)c(C(=O)NCC2(O)CCCCC2)c1)c1ccn(C)c(=O)n1` [Example 19, 2-Chloro-N-(1-hydroxy-cyclohexylmethyl)-5-[methyl-(1-methyl-2-oxo-1,2-dihydro-pyrimidin-4-yl)-amino]-benzamide], the concentration for half-maximal inhibition (IC50) is 420 nM. Regarding `COC1(CNC(=O)c2cc(N(C)c3ccnc(=O)[nH]3)ccc2Cl)CCCCC1` [Example 52, 2-Chloro-N-(1-methoxy-cyclohexylmethyl)-5-[methyl-(2-oxo-2,3-dihydro-pyrimidin-4-yl)-amino]-benzamide], the IC50 amounted to 170 nM. For the molecule `CN(c1ccc(Cl)c(C(=O)NCC2(O)CCCCC2)c1)c1cc(=O)[nH]cn1` [Example 68, 2-Chloro-N-(1-hydroxy-cyclohexylmethyl)-5-[methyl-(6-oxo-1,6-dihydro-pyrimidin-4-yl)-amino]-benzamide], the half-maximal inhibitory concentration (IC50) turned out to be 288 nM.

For the molecule `O=C(NCC1(O)CCCCC1)c1cc(Oc2ccc(=O)[nH]n2)ccc1Cl` [Example 129, 2-Chloro-N-(1-hydroxy-cyclohexylmethyl)-5-(6-oxo-1,6-dihydro-pyridazin-3-yloxy)-benzamide], the 50% inhibitory concentration (IC50) was found to be 80 nM. `COc1nccc(N(CCOc2ccccc2)c2ccc(Cl)c(C(=O)NCC3(O)CCCCC3)c2)n1` [Example 40, 2-Chloro-N-(1-hydroxy-cyclohexylmethyl)-5-[(2-methoxy-pyrimidin-4-yl)-(2-phenoxy-ethyl)-amino]-benzamide]: the IC50 stood at 588 nM.

Take `COc1nccc(Nc2ccc(Cl)c(C(=O)NCC3(O)CCCCC3)c2)n1` [Example 12, 2-Chloro-N-(1-hydroxy-cyclohexylmethyl)-5-(2-methoxy-pyrimidin-4-ylamino)-benzamide]: the 50% inhibitory concentration (IC50) was found to be 733 nM. For `Cn1c(Oc2ccc(Cl)c(C(=O)NCC3(O)CCCCC3)c2)cccc1=O` [Example 113, 2-Chloro-N-(1-hydroxy-cyclohexylmethyl)-5-(1-methyl-6-oxo-1,6-dihydro-pyridin-2-yloxy)-benzamide], the half-inhibitory concentration (IC50) came to 96 nM. For `COc1cncc(Oc2ccc(Cl)c(C(=O)NCC3(O)CCCCC3)c2)n1` [Example 123, 2-Chloro-N-(1-hydroxy-cyclohexylmethyl)-5-(6-methoxy-pyrazin-2-yloxy)-benzamide] the value was 123 nM. Consider `Cn1cccc(Nc2ccc(Cl)c(C(=O)NCC3(O)CCCCC3)c2)c1=O` [Example 99, 2-Chloro-N-(1-hydroxy-cyclohexylmethyl)-5-(1-methyl-2-oxo-1,2-dihydro-pyridin-3-ylamino)-benzamide], for which the IC50 came to 148 nM. For `COc1nccc(Oc2ccc(Cl)c(C(=O)NCC3(O)CCCCC3)c2)n1` [Example 120, 2-Chloro-N-(1-hydroxy-cyclohexylmethyl)-5-(2-methoxy-pyrimidin-4-yloxy)-benzamide], the 50% inhibitory concentration (IC50) was 111 nM. With `CN(C)c1cccc(Oc2ccc(Cl)c(C(=O)NCC3(O)CCCCC3)c2)n1` [Example 110, 2-Chloro-5-(6-dimethylamino-pyridin-2-yloxy)-N-(1-hydroxy-cyclohexylmethyl)-benzamide], the IC50 came to 122 nM.

As for `CN(c1ccc(Cl)c(C(=O)NCC2(C(N)=O)CCCCC2)c1)c1ccnc(Cl)n1` [Example 53, N-(1-Carbamoyl-cyclohexylmethyl)-2-chloro-5-[(2-chloro-pyrimidin-4-yl)-methyl-amino]-benzamide], the IC50 came out at 576 nM. For `CNc1nccc(Oc2ccc(Cl)c(C(=O)NCC3(O)CCCCC3)c2)n1` [Example 116, 2-Chloro-N-(1-hydroxy-cyclohexylmethyl)-5-(2-methylamino-pyrimidin-4-yloxy)-benzamide], the 50% inhibitory concentration (IC50) came out at 172 nM. The value for `COc1nccc(S(=O)(=O)c2ccc(Cl)c(C(=O)NCC3(O)CCCCC3)c2)n1` [Example 141, 2-Chloro-N-(1-hydroxy-cyclohexylmethyl)-5-(2-methoxy-pyrimidine-4-sulfonyl)-benzamide] was 3890 nM.
